The text below walks through data of article PMC4157654, “Orthogonal functionalisation of α-helix mimetics” (Organic & Biomolecular Chemistry, 2014).

Assay [1] addresses T1, p53/hDM2 interaction (Homo sapiens, UniProt Q00987).
T1 construct: hDM2 17-126 was diluted into buffer; made in house
Kind of assay: Fluorescence anisotropy competition assay, p53/hDM2. The format is binding. Conditions: hDM2 154 nM, FITC-p53 54.5 nM, phosphate buffer pH 7.5, 200 mM NaCl, 0.02 mg/ml BSA. The method, then:
The ability of the trimers to inhibit the p53/hDM2 interaction was then investigated using a fluorescence anisotropy competition assay (Fig. 3a). Briefly, a fluorescein-labelled p53 peptide is initially bound to hDM2 and displaced by increasing concentrations of inhibitor leading to a measurable decrease in anisotropy from which IC50 values can be determined, Table 1.
(§1) Fig. 3 Fluorescence anisotropy binding assays in phosphate buffer pH 7.5, 200 mM NaCl, 0.02 mg ml^–1 BSA. (a) p53/hDM2 competition assay hDM2 is fixed as 154 nM and FITC-p53 is at a concentration of 54.5 nM. (b) Direct binding assay of trimer 5 binding to hDM2 or Mcl-1. Compound 5 is fixed at 50 nM.
Figure S6 – Fluorescence anisotropy competition assay testing the inhibition of the trimers against the p53/hDM2 interaction; unfunctionalised trimer 1 and acid, ethylene glycol and coumarin-functionalised trimers 2, 3 and 4. Performed in phosphate buffer pH 7.5, 200 mM NaCl, 0.02 mg/ml BSA. h DM2 is fixed as 154 nM and FITC-p53 is at a concentration of 54.5 nM. […]
(In fluorescence polarisation assays a small probe gives low polarisation when free and higher when bound to something large.)

The target in assay [2] is T2, Mcl-1/NOXA-B interaction (Homo sapiens, UniProt Q07820).
T2 construct: The pet28a His-SUMO Mcl-1 (172-327) construct was over-expressed; His (N, cleaved yes); SUMO (N, cleaved yes); made in house; host or cells: E. coli Rosetta 2
Kind of assay: Fluorescence anisotropy competition assay, Mcl-1/NOXA-B. The format is binding. Conditions: Mcl-1 150 nM, FITC-NOXA-B 50 nM, phosphate buffer pH 7.5. The method, then:
Determination of the binding of FITC-NOXA-B to Mcl-1
The procedure followed was adapted from our previous paper on O-alkylated aromatic oligoamides.1 […]
Briefly: Mcl-1 was serially diluted (446 pM – 5 μM) into a solution of FITC-NOXA-B (25 nM) (40 […]
mM Sodium phosphate buffer pH 7.54, 200 mM NaCl, 0.02 mg/ml of bovine serum albumin) – the […]
total volume of each well was 100 μL, the plates were allowed to incubate at room temperature for 45 […]
minutes. Each experiment was run in triplicate and the fluorescence anisotropy measured using a […]
Perkin Elmer EnVisionTM 2103 MultiLabel plate reader, with excitation at 480 nm and emission at […]
535 nm ([…] bandwidth) and the intensity (Eq. 1) was calculated for each point. This was used to […]
calculate anisotropy (Eq. 2) and plotted to a sigmoidal fit in Origin 7 to determine the minimum and […]
maximum anisotropies (rmin and rmax). Using equation 3, the data for the anisotropy was converted to […]
fraction bound and multiplied by the FITC-NOXA-B concentration then fitted in origin 7 (Eq. 4) to […]
From a plot of intensity (Eq. 1) against […]
concentration of protein λ was calculated to be 1. […]
{(k + x + [FL] - {(k + x + [FL]2 - 4x[FL]} r = anisotropy, I = total intensity, P = perpendicular intensity, S = parallel intensity, Lb = fraction ligand bound, λ = Ibound/Iunbound = 1, [FL] = concentration of fluorescent ligand, k1 = Kd , y = Lb* FITC- […]
NOXA-B and x = [added titrant], G is an instrument factor set to 1.
Figure S4 - Fluorescence anisotropy titration assays for the addition of FITC-NOXA-B to a constant […]
concentration of Mcl-1. Performed in phosphate buffer pH 7.5, 200 mM NaCl, 0.02 mg/ml BSA.
In order to set up displacement assay conditions Mcl-1 and FITC-labelled NOXA-B concentrations […]
were fixed and the tracer peptide was displaced with unlabelled NOXA-B.
Figure S5 – Fluorescence anisotropy competition assay testing the inhibition of unlabelled NOXA-B […]
against the Mcl-1/NOXA-B interaction. Performed in phosphate buffer pH 7.5, 200 mM NaCl, 0.02 […]
mg/ml BSA. Mcl-1 is fixed as 150 nM and FITC-NOXA-B is at a concentration of 50 nM. […]
Figure S7 – Fluorescence anisotropy competition assay testing the inhibition of the trimers against the Mcl-1/NOXA-B interaction; unfunctionalised trimer 1 and acid, ethylene glycol and coumarin- […]
BSA. Mcl-1 is fixed as 150 nM and FITC-NOXA-B is at a concentration of 50 nM.

Assay [3] addresses T3, Bcl-xL/BAK interaction (Homo sapiens, UniProt Q07817).
T3 construct: made in house
Kind of assay: Fluorescence anisotropy competition assay, Bcl-xL/BAK. The format is binding. Conditions: Bcl-xL 131 nM, BODIPY-BAK 43 nM, phosphate buffer pH 7.5. The method, then:
Figure S8 – Fluorescence anisotropy competition assay testing the inhibition of the trimers against the Bcl-x L/BAK interaction; unfunctionalised trimer 1 and acid, ethylene glycol and coumarin-functionalised trimers 2, 3 and 4. Performed in phosphate buffer pH 7.5, 200 mM NaCl, 0.02 mg/ml
BSA. Bcl-x L is fixed as 131 nM and BODIPY-BAK is at a concentration of 43 nM.
The observed increase in anisotropy is likely to be the result of aggregation of the trimer to the BAK […]
tracer and Bcl-x L complex. […]
In all experiments the G factor, or ratio between the efficiency of the S(ame) and P(erpendicular) channels was set to 1. […]

In assay [4] the target is T4, hDM2 (Homo sapiens, UniProt Q00987).
T4 construct: hDM2 17-126 was diluted into buffer; made in house
Kind of assay: Microscale thermophoresis direct binding to hDM2. Conditions: trimer fixed at 50 nM, phosphate buffer pH 7.5. The method, then: (§2) The fluorescently tagged trimers 4 and 5 were designed for use in direct binding experiments. We observed that upon ‘click’ reaction, the fluorescence of the coumarin group in trimer 4 was quenched (Fig. S14 ^†). This trimer was therefore tested in the fluorescence anisotropy competition assays as described above (Fig. S7 and S8 ^†). […] Direct binding experiments were performed using both fluorescence anisotropy (Fig. 3b) and microscale thermophoresis[52] (Fig. S12 ^†). […] The same fluorescence anisotropy experiment was then carried out for Mcl-1 and Bcl-xL. […] The absence of selectivity between hDM2 and Mcl-1 in this instance may arise as a consequence of non-specific interactions imparted by the fluorescein group – we note that K d is lower for 5 than the IC50's observed for both 2 and 3 which would support this hypothesis.
Thermophoresis Direct Binding to h DM2
Figure S12 – Direct binding of Compound 5 to hDM2 measured using thermophoresis at a fixed […]
concentration of 5 of 50 nM. […] Performed in phosphate buffer pH 7.5, 200 mM NaCl, […]
The larger errors at lower protein concentration are possibly the result of non-specific binding of the fluorescent trimer to the thermophoresis capillaries.
Fluorescence and Absorbance Characterisation of Trimers 4 and 5 […]
(1 picture or pasted object on this page, not shown here)
A general note: Microscale thermophoresis detects binding through changes in fluorescence in a small temperature gradient.

For assay [5], the target named is T5, Bcl-xL (Homo sapiens, UniProt Q07817).
T5 construct: made in house
Kind of assay: Fluorescence anisotropy direct binding assay, Bcl-xL. Conditions: trimer fixed at 50 nM. The method, then: as §2
Figure S10 - Change of intensity during addition of Mcl-1 used to calculate λ.
Anisotropy Direct Binding to Bcl-x L
Figure S11 – Anisotropy direct binding of Compound 5 to Bcl-x L at a fixed concentration of 5 of 50
nM. Performed in phosphate buffer pH 7.5, 200 mM NaCl, 0.02 mg/ml BSA. […]

Assay [6] deals with T6, Mcl-1 (Homo sapiens, UniProt Q07820).
T6 construct: The pet28a His-SUMO Mcl-1 (172-327) construct was over-expressed; His (N, cleaved yes); SUMO (N, cleaved yes); made in house; host or cells: E. coli Rosetta 2
Briefly: Fluorescence anisotropy direct binding assay, Mcl-1. Conditions: trimer fixed at 50 nM, read-out: Kd obtained through direct titration, Mcl-1. The method, then:
as §1, §2
Figure S9 - Change of intensity during addition of hDM2 used to calculate λ.
Mcl-1172-327 was diluted into buffer across the 24 wells from 200 μM to 18 nM. […] Ligand bound was calculated from Eq. 3 using λ =
2.31. K d was calculated from Eq. 4. […]

The target of assay [7] is T4, hDM2. Kind of assay: Fluorescence anisotropy direct binding assay, hDM2. Conditions: trimer fixed at 50 nM, read-out: Kd obtained through direct titration, hDM2. The method, then:
as §1
The fluorescently tagged trimers 4 and 5 were designed for use in direct binding experiments. We observed that upon ‘click’ reaction, the fluorescence of the coumarin group in trimer 4 was quenched (Fig. S14 ^†). This trimer was therefore tested in the fluorescence anisotropy competition assays as described above (Fig. S7 and S8 ^†). […] Direct binding experiments were performed using both fluorescence anisotropy (Fig. 3b) and microscale thermophoresis[52] (Fig. S12 ^†). […] The same fluorescence anisotropy experiment was then carried out for Mcl-1 and Bcl-xL. […]
Figure S8 – Fluorescence anisotropy competition assay testing the inhibition of the trimers against the Bcl-x L/BAK interaction; unfunctionalised trimer 1 and acid, ethylene glycol and coumarin-functionalised trimers 2, 3 and 4. […]
Direct Binding Assay Development hDM2 17-126 was diluted into buffer across the 24 wells from 400 μM to 36 nM. […] Ligand bound was calculated from Eq. 3 using λ =
2.06. K d was calculated from Eq. 4. […]

A value given as a limit tells only on which side of the number the result lay.

The term IC50 denotes the concentration that inhibits the measured activity by half. On to `CC(C)CN(C(=O)c1ccc(N(Cc2cccc3ccccc23)C(=O)c2ccc(NCc3ccccc3)cc2)c(OCc2cn(CC(=O)O)nn2)c1)c1ccc(C(=O)NCC(=O)O)cc1` [Trimer 2], for which the IC50 in assay [1] is 40 ± 5 µM; in assay [2], greater than 70 µM. Moreover, the “IC50 Bcl-xL/BAK” value in assay [3] was “No inhibition”.
`CC(C)CN(C(=O)c1ccc(N(Cc2cccc3ccccc23)C(=O)c2ccc(NCc3ccccc3)cc2)cc1)c1ccc(C(=O)NCC(=O)O)cc1` [Trimer 1]: the figures for the IC50 in assay [1] and in assay [2] were 12.3 ± 0.4 µM and greater than 70 µM, respectively. Also, the “IC50 Bcl-xL/BAK” value in assay [3] is listed as “No inhibition”.
As for `CC(C)CN(C(=O)c1ccc(N(Cc2cccc3ccccc23)C(=O)c2ccc(NCc3ccccc3)cc2)c(OCc2cn(CCCNC(=S)Nc3ccc(-c4c5ccc(=O)cc-5oc5cc(O)ccc45)c(C(=O)O)c3)nn2)c1)c1ccc(C(=O)NCC(=O)O)cc1` [Trimer 5], the Kd in assay [4] is 11 ± 2 µM; in assay [6], 13 ± 4 µM; in assay [7], 20 ± 6 µM. For the same compound, the “Direct binding to Bcl-xL” value in assay [5] is on record as “no binding was observed”.
`CC(C)CN(C(=O)c1ccc(N(Cc2cccc3ccccc23)C(=O)c2ccc(NCc3ccccc3)cc2)c(OCc2cn(CCOCCOCCOCCO)nn2)c1)c1ccc(C(=O)NCC(=O)O)cc1` [Trimer 3]: the figures for the half-maximal inhibitory concentration (IC50) in assay [1] and in assay [2] were 42 ± 6 µM and greater than 70 µM, respectively. Besides, the “IC50 Bcl-xL/BAK” value in assay [3] is listed as “No inhibition”.
The corresponding values for `CC(C)CN(C(=O)c1ccc(N(Cc2cccc3ccccc23)C(=O)c2ccc(NCc3ccccc3)cc2)c(OCc2cn(CCCNC(=O)c3cc4ccccc4oc3=O)nn2)c1)c1ccc(C(=O)NCC(=O)O)cc1` [Trimer 4] are 20.3 ± 0.3 µM, greater than 70 µM and “No inhibition”.
